The source made the active and inactive calls.
Key:
[1] = molecular target: Cytochrome P450 2C19 (Homo sapiens, UniProt P33261); assay: qHTS Assay for Inhibitors and Substrates of Cytochrome P450 2C19. [Related pubchem assays: 410 ]; assay type: ADME; settings: read-out: Potency
[2] = molecular target: Cytochrome P450 2D6 (Homo sapiens, UniProt P10635); assay: qHTS Assay for Inhibitors and Substrates of Cytochrome P450 2D6. [Related pubchem assays: 410 ]; assay type: ADME; settings: read-out: Potency
Chain of Cytochrome P450 2D6 (P10635 whole entry): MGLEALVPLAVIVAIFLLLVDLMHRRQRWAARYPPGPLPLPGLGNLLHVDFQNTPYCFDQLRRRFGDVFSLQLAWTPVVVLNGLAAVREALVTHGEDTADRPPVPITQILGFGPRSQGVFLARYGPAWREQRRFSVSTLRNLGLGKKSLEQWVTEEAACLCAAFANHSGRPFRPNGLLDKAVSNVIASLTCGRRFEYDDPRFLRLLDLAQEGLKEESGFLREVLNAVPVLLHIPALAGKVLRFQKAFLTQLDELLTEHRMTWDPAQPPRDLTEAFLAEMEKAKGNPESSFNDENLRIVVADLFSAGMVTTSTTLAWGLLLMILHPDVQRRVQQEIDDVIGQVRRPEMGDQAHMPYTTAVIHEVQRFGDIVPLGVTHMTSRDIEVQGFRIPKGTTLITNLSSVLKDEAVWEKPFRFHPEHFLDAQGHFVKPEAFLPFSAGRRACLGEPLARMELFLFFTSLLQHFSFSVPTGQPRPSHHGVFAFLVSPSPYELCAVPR

[3] = molecular target: T1, Sphingosine 1-phosphate receptor 4 (Homo sapiens, UniProt O95977); assay: Fluorescence dose response cell-based high throughput screening assay for antagonists of the Sphingosine 1-Phosphate Receptor 4 (S1P4). [Related pubchem assays: 1524 (Confirmation in triplicates.), 1510 (Primary screen.)]; assay type: functional
T1 sequence (O95977 whole entry): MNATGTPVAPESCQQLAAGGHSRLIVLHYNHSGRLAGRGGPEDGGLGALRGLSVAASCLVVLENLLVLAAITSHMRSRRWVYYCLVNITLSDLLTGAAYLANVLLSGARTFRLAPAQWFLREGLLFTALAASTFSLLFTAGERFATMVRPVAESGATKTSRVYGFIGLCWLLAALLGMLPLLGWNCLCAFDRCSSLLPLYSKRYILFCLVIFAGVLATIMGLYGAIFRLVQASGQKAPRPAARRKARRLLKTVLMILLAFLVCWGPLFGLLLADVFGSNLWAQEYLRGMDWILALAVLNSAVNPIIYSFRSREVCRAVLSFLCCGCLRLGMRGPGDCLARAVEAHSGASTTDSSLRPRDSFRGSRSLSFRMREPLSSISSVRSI

[4] = viability of PTEN-deleted HCT116 cells – cell-based, HCT116 PTEN knockout, dose response (AID 1047); assay type: functional;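 also: HCT116 colon tumor cells with PTEN knocked out; cells exposed to compound for 60 hours before readout; potency for loss of cell viability measured by luminescence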
[5] = molecular target: T2, Replicative DNA helicase DnaB (Mycobacterium tuberculosis, UniProt P9WMR3); assay: DnaB intein splicing inhibitors, dose response, biochemical, cell-free fluorescence (AID 449749); assay type: functional
T2 sequence (P9WMR3 whole entry): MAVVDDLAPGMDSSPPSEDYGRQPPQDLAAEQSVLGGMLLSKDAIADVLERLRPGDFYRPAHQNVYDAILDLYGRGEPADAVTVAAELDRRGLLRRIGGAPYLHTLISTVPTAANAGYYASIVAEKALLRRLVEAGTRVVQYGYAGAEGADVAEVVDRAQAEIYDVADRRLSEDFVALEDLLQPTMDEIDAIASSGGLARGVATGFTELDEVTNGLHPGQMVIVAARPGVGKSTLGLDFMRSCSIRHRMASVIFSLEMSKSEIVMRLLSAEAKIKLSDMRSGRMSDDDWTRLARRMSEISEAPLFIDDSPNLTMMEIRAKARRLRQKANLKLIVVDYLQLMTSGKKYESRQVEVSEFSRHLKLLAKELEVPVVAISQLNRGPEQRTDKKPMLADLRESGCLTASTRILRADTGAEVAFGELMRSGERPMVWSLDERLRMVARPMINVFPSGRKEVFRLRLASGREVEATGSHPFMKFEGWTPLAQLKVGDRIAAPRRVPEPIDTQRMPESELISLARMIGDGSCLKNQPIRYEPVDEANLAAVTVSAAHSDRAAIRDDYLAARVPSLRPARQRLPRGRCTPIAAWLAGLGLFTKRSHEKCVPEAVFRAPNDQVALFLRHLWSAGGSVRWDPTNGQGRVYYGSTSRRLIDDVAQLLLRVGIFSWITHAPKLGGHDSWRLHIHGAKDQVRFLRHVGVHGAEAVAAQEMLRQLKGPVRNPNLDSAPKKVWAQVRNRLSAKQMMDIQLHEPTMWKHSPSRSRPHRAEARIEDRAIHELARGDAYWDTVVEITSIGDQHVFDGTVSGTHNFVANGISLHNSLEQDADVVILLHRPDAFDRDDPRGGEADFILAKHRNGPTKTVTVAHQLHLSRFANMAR

[6] = molecular target: T1, Sphingosine 1-phosphate receptor 4; assay: Late stage fluorescence dose response cell-based screening assay for antagonists of the Sphingosine 1-Phosphate Receptor 4 (S1P4). [Related pubchem assays: 1524 (Confirmation screen (S1P4 antagonists).), 1510 (Primary screen (S1P4 antagonists).), 1853 (Summary AID (S1P4 antagonists).), 1692 (Dose response screen (S1P4 antagonists).)]; assay type: functional
[7] = molecular target: Sphingosine 1-phosphate receptor 1 (Homo sapiens, UniProt P21453); assay type: functional;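 also: Tango beta-arrestin reporter U2OS cells stimulated with S1P near its EC80; inhibitor potency meaning antagonism of receptor activation by the natural agonist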
Chain of Sphingosine 1-phosphate receptor 1 (P21453 whole entry): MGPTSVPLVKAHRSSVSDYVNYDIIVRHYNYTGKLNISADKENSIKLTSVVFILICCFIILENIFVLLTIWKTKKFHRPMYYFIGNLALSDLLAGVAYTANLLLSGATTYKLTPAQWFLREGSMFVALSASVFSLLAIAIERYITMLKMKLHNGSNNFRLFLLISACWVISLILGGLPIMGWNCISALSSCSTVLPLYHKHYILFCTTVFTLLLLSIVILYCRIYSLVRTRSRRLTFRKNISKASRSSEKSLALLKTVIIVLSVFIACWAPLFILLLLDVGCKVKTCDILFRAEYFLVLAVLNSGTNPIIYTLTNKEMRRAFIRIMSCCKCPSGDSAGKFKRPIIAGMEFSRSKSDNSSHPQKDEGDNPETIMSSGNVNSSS

[8] = NIH-3T3 fibroblast cytotoxicity, dose response, cytotoxicity control, cell-based, fluorescence, Alamar Blue, secondary assay (AID 2327); assay type: functional;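 also: NIH-3T3 mouse fibroblasts cultured with fluconazole at 8 µg/mL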
[9] = molecular target: T3, Protein RecA (Mycobacterium tuberculosis, UniProt P9WHJ3); assay: Fluorescence Cell-Free Homogeneous Dose Retest to Identify Inhibitors of RecA-Intein Splicing Activity. [Related pubchem assays (depositor defined):AID2097, AID2223, AID489010, AID492950]; assay type: functional
T3 sequence (P9WHJ3 whole entry): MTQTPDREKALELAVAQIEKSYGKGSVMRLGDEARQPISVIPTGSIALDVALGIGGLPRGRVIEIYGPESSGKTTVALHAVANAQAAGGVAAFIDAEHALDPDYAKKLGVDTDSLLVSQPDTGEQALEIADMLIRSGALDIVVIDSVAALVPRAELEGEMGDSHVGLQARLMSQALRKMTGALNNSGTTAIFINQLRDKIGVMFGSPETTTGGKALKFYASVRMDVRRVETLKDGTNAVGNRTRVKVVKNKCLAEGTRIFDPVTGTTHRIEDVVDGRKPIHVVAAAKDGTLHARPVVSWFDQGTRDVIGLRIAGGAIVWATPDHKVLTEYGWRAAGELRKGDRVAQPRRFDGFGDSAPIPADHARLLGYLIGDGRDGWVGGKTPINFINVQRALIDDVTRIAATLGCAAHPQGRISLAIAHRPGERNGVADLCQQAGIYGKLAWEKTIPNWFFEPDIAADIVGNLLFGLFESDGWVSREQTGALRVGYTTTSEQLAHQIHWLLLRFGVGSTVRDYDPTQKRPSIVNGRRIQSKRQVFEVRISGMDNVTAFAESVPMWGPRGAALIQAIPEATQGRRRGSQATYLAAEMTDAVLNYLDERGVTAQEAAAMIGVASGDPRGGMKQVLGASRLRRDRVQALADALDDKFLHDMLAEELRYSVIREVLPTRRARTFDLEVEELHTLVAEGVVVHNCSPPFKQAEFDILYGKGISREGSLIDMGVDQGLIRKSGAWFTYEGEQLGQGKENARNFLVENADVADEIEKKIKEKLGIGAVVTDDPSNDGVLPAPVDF

[10] = viability of HCT116 lacking mutant beta-catenin – cell-based, human colon tumor, dose response (AID 1045); assay type: functional;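 also: HCT116 colon tumor cells with beta catenin knocked out; cells exposed to compound for 60 hours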
[11] = molecular target: T4, Heat shock factor protein 1 (Mus musculus, UniProt P38532); assay: enhancement of HSF1-driven luciferase signal – cell-based, NIH3T3, luminescence, dose retest, confirmation (AID 435004); assay type: functional;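 also: stress induced by proteasome inhibitor MG132 added 30 min after compound; luciferase reporter driven by HSF1 response element in NIH3T3 cells; actives raise luminescence as potentiators of the MG132 stress response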
T4 sequence (P38532 whole entry): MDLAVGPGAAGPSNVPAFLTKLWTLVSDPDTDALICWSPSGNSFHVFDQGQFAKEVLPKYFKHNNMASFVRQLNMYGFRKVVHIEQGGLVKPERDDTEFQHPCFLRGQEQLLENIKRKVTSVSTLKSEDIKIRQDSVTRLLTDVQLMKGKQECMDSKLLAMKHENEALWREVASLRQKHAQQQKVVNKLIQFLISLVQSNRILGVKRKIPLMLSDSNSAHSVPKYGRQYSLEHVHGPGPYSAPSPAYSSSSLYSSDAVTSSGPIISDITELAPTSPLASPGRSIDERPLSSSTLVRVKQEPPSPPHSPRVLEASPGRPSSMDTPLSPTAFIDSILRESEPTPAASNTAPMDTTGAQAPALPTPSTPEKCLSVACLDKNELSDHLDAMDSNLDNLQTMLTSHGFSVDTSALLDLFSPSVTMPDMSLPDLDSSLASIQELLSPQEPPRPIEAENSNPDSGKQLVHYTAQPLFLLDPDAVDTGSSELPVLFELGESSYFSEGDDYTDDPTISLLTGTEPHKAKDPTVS

[12] = fluconazole-exposed Candida albicans growth modulators – fluorescence, retest, confirmation (AID 2467); assay type: functional, cell-based
[13] = molecular target: Photoreceptor-specific nuclear receptor (Homo sapiens, UniProt Q9Y5X4); assay: ligands suppressing NR2E3 nuclear receptor activity – biochemical, TR-FRET, dose response (AID 463256); assay type: functional
Chain of Photoreceptor-specific nuclear receptor (Q9Y5X4 whole entry): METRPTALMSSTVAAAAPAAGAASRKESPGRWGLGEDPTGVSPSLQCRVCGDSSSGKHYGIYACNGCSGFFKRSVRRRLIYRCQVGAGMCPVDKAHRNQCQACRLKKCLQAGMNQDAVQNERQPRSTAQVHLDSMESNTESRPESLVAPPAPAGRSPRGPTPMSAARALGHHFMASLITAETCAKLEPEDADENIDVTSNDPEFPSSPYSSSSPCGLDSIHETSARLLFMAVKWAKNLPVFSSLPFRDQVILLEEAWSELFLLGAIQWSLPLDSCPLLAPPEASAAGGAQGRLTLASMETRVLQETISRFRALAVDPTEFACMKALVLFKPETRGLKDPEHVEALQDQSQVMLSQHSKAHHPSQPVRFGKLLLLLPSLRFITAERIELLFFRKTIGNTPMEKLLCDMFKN

[14] = molecular target: Peroxisome proliferator-activated receptor gamma/Nuclear receptor corepressor 2 (Homo sapiens, UniProt P37231+Q9Y618); assay: Counterscreen for NR2E3 inverse agonists: TR-FRET-based biochemical high throughput dose response assay to identify inverse agonists of the interaction between peroxisome proliferator-activated receptor gamma (PPARg) and nuclear receptor co-repressor 2 (NCOR2).; assay type: functional
Chain of Peroxisome proliferator-activated receptor gamma/Nuclear receptor corepressor 2 (P37231 whole entry): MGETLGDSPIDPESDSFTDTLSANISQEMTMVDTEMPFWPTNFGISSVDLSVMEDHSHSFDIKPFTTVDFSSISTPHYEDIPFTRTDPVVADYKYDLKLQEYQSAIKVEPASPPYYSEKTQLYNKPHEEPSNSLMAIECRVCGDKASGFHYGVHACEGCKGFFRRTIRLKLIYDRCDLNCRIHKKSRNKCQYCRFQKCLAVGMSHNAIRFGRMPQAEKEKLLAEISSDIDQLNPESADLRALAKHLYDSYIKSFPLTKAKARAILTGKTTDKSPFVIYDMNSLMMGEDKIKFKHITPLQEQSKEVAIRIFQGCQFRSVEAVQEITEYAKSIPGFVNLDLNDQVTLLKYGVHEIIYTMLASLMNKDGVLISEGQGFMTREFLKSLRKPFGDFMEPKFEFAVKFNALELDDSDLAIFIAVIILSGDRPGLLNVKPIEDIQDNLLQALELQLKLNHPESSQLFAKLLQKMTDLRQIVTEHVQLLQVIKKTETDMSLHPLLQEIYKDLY
Chain of Peroxisome proliferator-activated receptor gamma/Nuclear receptor corepressor 2 (Q9Y618 whole entry): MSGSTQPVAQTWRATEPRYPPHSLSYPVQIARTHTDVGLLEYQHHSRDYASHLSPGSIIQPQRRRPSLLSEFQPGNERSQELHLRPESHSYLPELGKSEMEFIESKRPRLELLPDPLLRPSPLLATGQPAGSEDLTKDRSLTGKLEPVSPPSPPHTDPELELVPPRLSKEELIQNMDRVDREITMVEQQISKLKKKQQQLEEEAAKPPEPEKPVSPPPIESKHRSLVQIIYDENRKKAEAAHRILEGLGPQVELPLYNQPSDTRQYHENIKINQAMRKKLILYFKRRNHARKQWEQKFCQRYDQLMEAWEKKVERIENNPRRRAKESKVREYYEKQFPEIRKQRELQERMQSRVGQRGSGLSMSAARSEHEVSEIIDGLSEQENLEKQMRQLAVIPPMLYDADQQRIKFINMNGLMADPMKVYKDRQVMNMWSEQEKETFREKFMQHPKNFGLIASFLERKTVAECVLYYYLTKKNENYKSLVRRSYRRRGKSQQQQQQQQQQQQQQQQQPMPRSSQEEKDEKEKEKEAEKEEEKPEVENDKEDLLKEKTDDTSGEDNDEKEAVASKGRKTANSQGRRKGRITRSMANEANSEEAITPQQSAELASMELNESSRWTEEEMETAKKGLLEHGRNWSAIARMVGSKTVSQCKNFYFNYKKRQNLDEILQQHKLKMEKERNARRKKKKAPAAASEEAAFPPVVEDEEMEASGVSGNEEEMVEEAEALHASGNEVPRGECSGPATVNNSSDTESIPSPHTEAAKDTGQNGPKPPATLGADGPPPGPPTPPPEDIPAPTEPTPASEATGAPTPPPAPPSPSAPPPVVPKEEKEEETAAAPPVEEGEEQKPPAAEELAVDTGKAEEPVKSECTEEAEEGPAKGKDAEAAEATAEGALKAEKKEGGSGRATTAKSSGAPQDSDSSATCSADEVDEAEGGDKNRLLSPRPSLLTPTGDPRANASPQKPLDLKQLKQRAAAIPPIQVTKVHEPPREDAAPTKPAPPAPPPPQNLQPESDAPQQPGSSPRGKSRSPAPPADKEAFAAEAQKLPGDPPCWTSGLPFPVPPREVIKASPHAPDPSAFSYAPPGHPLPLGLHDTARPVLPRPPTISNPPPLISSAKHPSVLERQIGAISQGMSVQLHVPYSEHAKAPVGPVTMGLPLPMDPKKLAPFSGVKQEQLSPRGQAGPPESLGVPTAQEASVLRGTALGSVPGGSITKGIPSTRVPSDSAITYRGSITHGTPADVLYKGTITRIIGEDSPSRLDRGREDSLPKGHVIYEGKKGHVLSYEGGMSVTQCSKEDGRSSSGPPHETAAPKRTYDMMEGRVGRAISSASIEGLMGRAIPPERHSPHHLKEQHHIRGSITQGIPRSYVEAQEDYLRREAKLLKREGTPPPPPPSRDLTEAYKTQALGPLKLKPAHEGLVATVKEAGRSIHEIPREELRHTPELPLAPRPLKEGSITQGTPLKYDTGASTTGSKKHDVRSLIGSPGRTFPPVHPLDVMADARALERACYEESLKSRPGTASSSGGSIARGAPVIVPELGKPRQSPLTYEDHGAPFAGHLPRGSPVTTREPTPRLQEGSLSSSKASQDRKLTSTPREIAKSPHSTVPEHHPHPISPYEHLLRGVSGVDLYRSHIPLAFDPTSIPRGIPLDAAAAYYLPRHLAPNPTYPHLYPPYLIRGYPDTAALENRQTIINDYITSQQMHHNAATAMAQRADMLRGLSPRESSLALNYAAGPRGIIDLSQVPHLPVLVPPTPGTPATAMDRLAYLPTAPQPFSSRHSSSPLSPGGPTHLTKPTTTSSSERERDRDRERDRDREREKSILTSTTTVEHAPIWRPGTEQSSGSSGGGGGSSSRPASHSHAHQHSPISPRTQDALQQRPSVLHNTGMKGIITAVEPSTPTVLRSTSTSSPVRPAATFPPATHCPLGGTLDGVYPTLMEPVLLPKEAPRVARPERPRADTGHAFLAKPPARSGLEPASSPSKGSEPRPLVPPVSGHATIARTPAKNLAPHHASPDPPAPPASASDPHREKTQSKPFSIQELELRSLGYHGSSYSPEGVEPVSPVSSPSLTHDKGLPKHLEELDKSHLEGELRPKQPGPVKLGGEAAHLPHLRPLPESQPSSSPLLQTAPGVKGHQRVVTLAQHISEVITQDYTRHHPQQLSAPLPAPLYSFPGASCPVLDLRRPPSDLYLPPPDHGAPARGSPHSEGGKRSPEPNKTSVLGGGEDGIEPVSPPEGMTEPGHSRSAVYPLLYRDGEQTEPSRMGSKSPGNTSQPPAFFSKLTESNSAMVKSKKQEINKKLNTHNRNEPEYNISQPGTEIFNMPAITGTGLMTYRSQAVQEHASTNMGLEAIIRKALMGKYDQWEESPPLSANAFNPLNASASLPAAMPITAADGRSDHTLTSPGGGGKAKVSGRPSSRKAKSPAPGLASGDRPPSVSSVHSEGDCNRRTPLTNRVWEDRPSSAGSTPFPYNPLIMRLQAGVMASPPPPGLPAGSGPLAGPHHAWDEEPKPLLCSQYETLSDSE

Chain of Cytochrome P450 2C19 (P33261 whole entry): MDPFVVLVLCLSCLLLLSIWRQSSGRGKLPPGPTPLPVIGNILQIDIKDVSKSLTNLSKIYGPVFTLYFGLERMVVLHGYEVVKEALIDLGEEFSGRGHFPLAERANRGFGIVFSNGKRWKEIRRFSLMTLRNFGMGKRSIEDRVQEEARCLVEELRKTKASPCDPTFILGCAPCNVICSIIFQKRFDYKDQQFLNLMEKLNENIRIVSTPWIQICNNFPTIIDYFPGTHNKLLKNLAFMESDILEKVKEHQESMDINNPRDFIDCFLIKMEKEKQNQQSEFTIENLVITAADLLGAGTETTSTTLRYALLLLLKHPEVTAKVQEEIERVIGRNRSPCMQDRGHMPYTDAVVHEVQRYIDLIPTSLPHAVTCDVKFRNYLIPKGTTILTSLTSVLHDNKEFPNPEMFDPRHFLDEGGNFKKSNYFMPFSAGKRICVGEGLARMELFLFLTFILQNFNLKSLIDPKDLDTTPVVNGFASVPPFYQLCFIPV

COC(=O)NC(/C(C(=O)OC)=C(\C)NCc1ccccc1)c1cccc(C)c1 (centres undefined)
AC50 [1]: 6.31 µM (inconclusive)
AC50 [2]: 7.94 µM (inconclusive)

O=S(=O)(c1ccc(Cl)c(Cl)c1)c1snnc1-c1ccccc1
IC50 [3]: 0.524 µM (active)
EC50 [4]: 0.117 µM (active)
AC50 [5]: 2.89 µM (active)
IC50 [6]: 10.8 µM (not active)
IC50 [7]: 4.29 µM (active)
EC50 [8]: 18.3 µM (active)
EC50 [9]: 0.504 µM (active)
EC50 [10]: 0.083 µM (active)
EC50 [11]: 9.7 µM (active)
EC50 [12]: > 38 µM (not active)

NC(=O)c1ccc(NC(=O)CNC(=O)c2sc3ccccc3c2Cl)cc1
IC50 [13]: 4.85 µM (active)
IC50 [14]: 2.8 µM (active)
